# Laboratory results taken from ChEMBL document CHEMBL4219190, “Studies on synthesis of novel pyrido[2,3-d]pyrimidine derivatives, evaluation of their antimicrobial activity and molecular docking” (Bioorg Med Chem Lett, 2018).
# Activity calls are given as the source filed them. The calls are words filed in the database; no cut-off is given here.
# Assays:
# Candida albicans [1] = test: Antifungal activity against Candida albicans MTCC 3958 after 24 hrs by well diffusion method; type: functional
# Candida albicans [2] = test: Fungicidal activity against Candida albicans MTCC 4748 incubated for 24 hrs followed by transfer of microbial suspension to Sabouraud dextrose agar plates and measured after 24 hrs post transfer; type: functional
# Candida albicans [3] = test: Antifungal activity against Candida albicans MTCC 227 after 24 hrs by well diffusion method; type: functional; settings: MTCC 227, 24 h
# Candida albicans [4] = test: Fungicidal activity against Candida albicans MTCC 1637 incubated for 24 hrs followed by transfer of microbial suspension to Sabouraud dextrose agar plates and measured after 24 hrs post transfer; type: functional; settings: MTCC 1637, 24 h
# Staphylococcus aureus [5] = test: Antibacterial activity against Staphylococcus aureus MLS16 MTCC 2940 after 24 hrs by well diffusion method; type: functional; settings: MLS16 MTCC 2940, 24 h
# Candida parapsilosis [6] = test: Antifungal activity against Candida parapsilosis MTCC 1744 after 24 hrs by well diffusion method; type: functional; settings: MTCC 1744, 24 h
# Staphylococcus aureus [7] = test: Antibacterial activity against Staphylococcus aureus MTCC 96 after 24 hrs by well diffusion method; type: functional; settings: MTCC 96, 24 h
# Candida albicans [8] = test: Antifungal activity against Candida albicans MTCC 3017 after 24 hrs by well diffusion method; type: functional; settings: MTCC 3017, 24 h
# Pseudomonas aeruginosa [9] = test: Antibacterial activity against Pseudomonas aeruginosa MTCC 2453 after 24 hrs by well diffusion method; type: functional; settings: MTCC 2453, 24 h
# Raoultella planticola [10] = test: Antibiofilm activity against Klebsiella planticola MTCC 530 after 24 hrs by crystal violet staining-based assay; type: functional, organism-based; settings: Klebsiella planticola, MTCC 530, 24 h; read-out: IC50
# Micrococcus luteus [11] = test: Antibacterial activity against Micrococcus luteus MTCC 2470 after 24 hrs by well diffusion method; type: functional; settings: MTCC 2470, 24 h
# Candida albicans [12] = test: Antifungal activity against Candida albicans MTCC 7315 after 24 hrs by well diffusion method; type: functional; settings: MTCC 7315, 24 h
# Bacillus subtilis [13] = test: Antibacterial activity against Bacillus subtilis MTCC 121 after 24 hrs by well diffusion method; type: functional; settings: MTCC 121, 24 h
# Staphylococcus aureus [14] = test: Antibiofilm activity against Staphylococcus aureus MTCC 96 after 24 hrs by crystal violet staining-based assay; type: functional, organism-based; settings: Staphylococcus aureus, MTCC 96, 24 h; read-out: IC50
# Candida albicans [15] = test: Antifungal activity against Candida albicans MTCC 4748 after 24 hrs by well diffusion method; type: functional
# Candida albicans [16] = test: Fungicidal activity against Candida albicans MTCC 854 incubated for 24 hrs followed by transfer of microbial suspension to Sabouraud dextrose agar plates and measured after 24 hrs post transfer; type: functional; settings: MTCC 854, 24 h
# Pichia sporocuriosa [17] = test: Antifungal activity against Issatchenkia hanoiensis MTCC 4755 after 24 hrs by well diffusion method; type: functional; settings: MTCC 4755, 24 h
# Candida parapsilosis [18] = test: Fungicidal activity against Candida parapsilosis MTCC 1744 incubated for 24 hrs followed by transfer of microbial suspension to Sabouraud dextrose agar plates and measured after 24 hrs post transfer; type: functional; settings: Lodderomyces parapsilosis, MTCC 1744, 24 h
# Staphylococcus aureus [19] = test: Bactericidal activity against Staphylococcus aureus MTCC 96 incubated for 24 hrs followed by transfer of microbial suspension to Mueller Hinton agar plates and measured after 24 hrs post transfer; type: functional; settings: MTCC 96, 24 h
# Raoultella planticola [20] = test: Bactericidal activity against Klebsiella planticola MTCC 530 incubated for 24 hrs followed by transfer of microbial suspension to Mueller Hinton agar plates and measured after 24 hrs post transfer; type: functional; settings: MTCC 530, 24 h
# Nakaseomyces glabratus [21] = test: Antifungal activity against Candida glabrata MTCC 3019 after 24 hrs by well diffusion method; type: functional; settings: MTCC 3019, 24 h
# Candida albicans [22] = test: Fungicidal activity against Candida albicans MTCC 3018 incubated for 24 hrs followed by transfer of microbial suspension to Sabouraud dextrose agar plates and measured after 24 hrs post transfer; type: functional
# Bacillus subtilis [23] = test: Antibiofilm activity against Bacillus subtilis MTCC 121 after 24 hrs by crystal violet staining-based assay; type: functional, organism-based; settings: Bacillus subtilis, MTCC 121, 24 h; read-out: IC50
# Pichia kudriavzevii [24] = test: Fungicidal activity against Candida krusei MTCC 3020 incubated for 24 hrs followed by transfer of microbial suspension to Sabouraud dextrose agar plates and measured after 24 hrs post transfer; type: functional
# Staphylococcus aureus [25] = test: Bactericidal activity against Staphylococcus aureus MLS16 MTCC 2940 incubated for 24 hrs followed by transfer of microbial suspension to Mueller Hinton agar plates and measured after 24 hrs post transfer; type: functional; settings: MLS16 MTCC 2940, 24 h
# Pichia sporocuriosa [26] = test: Fungicidal activity against Issatchenkia hanoiensis MTCC 4755 incubated for 24 hrs followed by transfer of microbial suspension to Sabouraud dextrose agar plates and measured after 24 hrs post transfer; type: functional; settings: MTCC 4755, 24 h
# Candida albicans [27] = test: Fungicidal activity against Candida albicans MTCC 227 incubated for 24 hrs followed by transfer of microbial suspension to Sabouraud dextrose agar plates and measured after 24 hrs post transfer; type: functional; settings: MTCC 227, 24 h
# Pseudomonas aeruginosa [28] = test: Antibiofilm activity against Pseudomonas aeruginosa MTCC 2453 after 24 hrs by crystal violet staining-based assay; type: functional, organism-based; settings: Pseudomonas aeruginosa, MTCC 2453, 24 h; read-out: IC50
# Candida albicans [29] = test: Antifungal activity against Candida albicans MTCC 854 after 24 hrs by well diffusion method; type: functional; settings: MTCC 854, 24 h
# Pseudomonas aeruginosa [30] = test: Bactericidal activity against Pseudomonas aeruginosa MTCC 2453 incubated for 24 hrs followed by transfer of microbial suspension to Mueller Hinton agar plates and measured after 24 hrs post transfer; type: functional; settings: MTCC 2453, 24 h
# [Candida] aaseri [31] = Antifungal activity against Candida aaseri MTCC 1962 after 24 hrs by well diffusion method; type: functional; settings: Yamadazyma aaseri, MTCC 1962, 24 h
# [Candida] aaseri [32] = Fungicidal activity against Candida aaseri MTCC 1962 incubated for 24 hrs followed by transfer of microbial suspension to Sabouraud dextrose agar plates and measured after 24 hrs post transfer; type: functional; settings: Yamadazyma aaseri, MTCC 1962, 24 h
# Raoultella planticola [33] = test: Antibacterial activity against Klebsiella planticola MTCC 530 after 24 hrs by well diffusion method; type: functional; settings: MTCC 530, 24 h
# Micrococcus luteus [34] = test: Bactericidal activity against Micrococcus luteus MTCC 2470 incubated for 24 hrs followed by transfer of microbial suspension to Mueller Hinton agar plates and measured after 24 hrs post transfer; type: functional; settings: MTCC 2470, 24 h
# Candida albicans [35] = test: Fungicidal activity against Candida albicans MTCC 3017 incubated for 24 hrs followed by transfer of microbial suspension to Sabouraud dextrose agar plates and measured after 24 hrs post transfer; type: functional; settings: MTCC 3017, 24 h
# Candida albicans [36] = test: Antifungal activity against Candida albicans MTCC 3018 after 24 hrs by well diffusion method; type: functional
# Nakaseomyces glabratus [37] = test: Fungicidal activity against Candida glabrata MTCC 3019 incubated for 24 hrs followed by transfer of microbial suspension to Sabouraud dextrose agar plates and measured after 24 hrs post transfer; type: functional; settings: MTCC 3019, 24 h
# Candida albicans [38] = test: Antifungal activity against Candida albicans MTCC 183 after 24 hrs by well diffusion method; type: functional; settings: MTCC 183, 24 h
# Escherichia coli [39] = test: Bactericidal activity against Escherichia coli MTCC 739 incubated for 24 hrs followed by transfer of microbial suspension to Mueller Hinton agar plates and measured after 24 hrs post transfer; type: functional; settings: MTCC 739, 24 h
# Bacillus subtilis [40] = test: Bactericidal activity against Bacillus subtilis MTCC 121 incubated for 24 hrs followed by transfer of microbial suspension to Mueller Hinton agar plates and measured after 24 hrs post transfer; type: functional; settings: MTCC 121, 24 h
# Pichia kudriavzevii [41] = test: Antifungal activity against Candida krusei MTCC 3020 after 24 hrs by well diffusion method; type: functional
# Staphylococcus aureus [42] = test: Antibiofilm activity against Staphylococcus aureus MLS16 MTCC 2940 after 24 hrs by crystal violet staining-based assay; type: functional, organism-based; settings: Staphylococcus aureus, MLS16 MTCC 2940, 24 h; read-out: IC50
# Candida albicans [43] = test: Fungicidal activity against Candida albicans MTCC 3958 incubated for 24 hrs followed by transfer of microbial suspension to Sabouraud dextrose agar plates and measured after 24 hrs post transfer; type: functional
# Candida albicans [44] = test: Fungicidal activity against Candida albicans MTCC 183 incubated for 24 hrs followed by transfer of microbial suspension to Sabouraud dextrose agar plates and measured after 24 hrs post transfer; type: functional; settings: MTCC 183, 24 h
# Candida albicans [45] = test: Antifungal activity against Candida albicans MTCC 1637 after 24 hrs by well diffusion method; type: functional; settings: MTCC 1637, 24 h
# Candida albicans [46] = test: Fungicidal activity against Candida albicans MTCC 7315 incubated for 24 hrs followed by transfer of microbial suspension to Sabouraud dextrose agar plates and measured after 24 hrs post transfer; type: functional; settings: MTCC 7315, 24 h
# Escherichia coli [47] = test: Antibacterial activity against Escherichia coli MTCC 739 after 24 hrs by well diffusion method; type: functional; settings: MTCC 739, 24 h
smiles,measurement,setting,value
O=C(c1nc(-c2ccccc2)c2c(C(F)(F)F)cc(-c3ccccc3)nc2n1)N1CCN(CCO)CC1,MIC,Candida albicans [1],inactive
same,MFC,Candida albicans [2],inactive
same,MIC,Candida albicans [3],7.8 µg/mL
same,MFC,Candida albicans [4],31.2 µg/mL
same,MIC,Staphylococcus aureus [5],15.6 µg/mL
same,MIC,Candida parapsilosis [6],31.2 µg/mL
same,MIC,Staphylococcus aureus [7],7.8 µg/mL
same,MIC,Candida albicans [8],3.9 µg/mL
same,MIC,Pseudomonas aeruginosa [9],15.6 µg/mL
same,IC50,Raoultella planticola [10],5.4 µg/mL
same,MIC,Micrococcus luteus [11],15.6 µg/mL
same,MIC,Candida albicans [12],62.5 µg/mL
same,MIC,Bacillus subtilis [13],31.2 µg/mL
same,IC50,Staphylococcus aureus [14],2.7 µg/mL
same,MIC,Candida albicans [15],inactive
same,MFC,Candida albicans [16],15.6 µg/mL
same,MIC,Pichia sporocuriosa [17],15.6 µg/mL
same,MFC,Candida parapsilosis [18],62.5 µg/mL
same,MBC,Staphylococcus aureus [19],15.6 µg/mL
same,MBC,Raoultella planticola [20],31.2 µg/mL
same,MIC,Nakaseomyces glabratus [21],15.6 µg/mL
same,MFC,Candida albicans [22],inactive
same,IC50,Bacillus subtilis [23],21.6 µg/mL
same,MFC,Pichia kudriavzevii [24],inactive
same,MBC,Staphylococcus aureus [25],31.2 µg/mL
same,MFC,Pichia sporocuriosa [26],31.2 µg/mL
same,MFC,Candida albicans [27],15.6 µg/mL
same,IC50,Pseudomonas aeruginosa [28],10.8 µg/mL
same,MIC,Candida albicans [29],7.8 µg/mL
same,MBC,Pseudomonas aeruginosa [30],31.2 µg/mL
same,MIC,[Candida] aaseri [31],31.2 µg/mL
same,MFC,[Candida] aaseri [32],62.5 µg/mL
same,MIC,Raoultella planticola [33],15.6 µg/mL
same,MBC,Micrococcus luteus [34],31.2 µg/mL
same,MFC,Candida albicans [35],7.8 µg/mL
same,MIC,Candida albicans [36],inactive
same,MFC,Nakaseomyces glabratus [37],31.2 µg/mL
same,MIC,Candida albicans [38],3.9 µg/mL
same,MBC,Escherichia coli [39],31.2 µg/mL
same,MBC,Bacillus subtilis [40],31.2 µg/mL
same,MIC,Pichia kudriavzevii [41],inactive
same,IC50,Staphylococcus aureus [42],10.8 µg/mL
same,MFC,Candida albicans [43],inactive
same,MFC,Candida albicans [44],7.8 µg/mL
same,MIC,Candida albicans [45],15.6 µg/mL
same,MFC,Candida albicans [46],62.5 µg/mL
same,MIC,Escherichia coli [47],15.6 µg/mL
